# From US10030020B2, “Spirocycle compounds and methods of making and using same” (Abide Therapeutics, Inc., priority 2016, dated 2018)
# Read-outs that look alike come from different tables or passages of the source.
# Tests used:
# MAGL [1] = biological target: T1, MAGL (Mus musculus (Mouse), UniProt O35678); test: In vitro competitive activity-based protein profiling (mouse brain membrane fraction or cell lysates), MAGL band; format: biochemical; details: for inhibition at 1 µM: read-out: MAGL % Inh 1 μM (mouse); for IC50: competitive ABPP
# Description: In Vitro Competitive Activity-Based Protein Profiling.
# Proteomes (mouse brain membrane fraction or cell lysates) (50 μL, 1.0 mg/mL total protein concentration) were preincubated with varying concentrations of inhibitors at 37° C. After 30 min, FP—Rh (1.0 μL, 50 μM in DMSO) was added and the mixture was incubated for another 30 min at 37° C. Reactions were quenched with SDS loading buffer (50 μL-4×) and run on SDS-PAGE.
# ABHD6 [2] = biological target: T2, ABHD6 (Mus musculus (Mouse), UniProt Q8R2Y0); test: In vitro competitive activity-based protein profiling (mouse brain membrane fraction or cell lysates), ABHD6 band; format: biochemical; details: for inhibition at 1 µM: read-out: ABHD6 % Inh 1 μM (mouse); for IC50: competitive ABPP
# Procedure, shortened: (§1)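 Mouse proteome samples (brain membrane fraction or cell lysate, 1.0 mg/mL protein) were pretreated with varying inhibitor concentrations and subsequently probed with fluorophosphonate-rhodamine, each step lasting 30 min at 37° C. Labelled proteins were separated by SDS-PAGE, and band fluorescence was imaged and quantified.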
# FAAH [3] = biological target: T3, FAAH (Mus musculus (Mouse), UniProt O08914); test: In vitro competitive activity-based protein profiling (mouse brain membrane fraction or cell lysates), FAAH band; format: biochemical; details: for inhibition at 1 µM: read-out: FAAH % Inh 1 μM (mouse); for IC50: competitive ABPP
# Procedure, shortened: as §1
# MAGL [4] = biological target: MAGL (Homo sapiens (Human), UniProt Q99685); test: In vitro competitive activity-based protein profiling (human prefrontal cortex or cell membrane fractions; hMAGL expressed in HEK293T cells); format: biochemical
# Description: In Vitro Competitive Activity-Based Protein Profiling (Human).
# Proteomes (human prefrontal cortex or cell membrane fractions) (50 μL, 1.0-2.0 mg/mL total protein concentration) were preincubated with varying concentrations of inhibitors at 37° C. After 30 min, FP—Rh or JW912 (1.0 μL, 50 μM in DMSO) was added and the mixture was incubated for another 30 min at room temperature. Reactions were quenched with SDS loading buffer (15 μL-4×) and run on SDS-PAGE.
# Recombinant Expression of Human MAGL in HEK293T Cells.
# Cell lysates were diluted with mock proteomes for use in competitive ABPP experiments.
# MAGL [5] = biological target: T1, MAGL; test: Mouse brain proteomes from inhibitor treated mice (oral gavage, sacrificed 4 h after administration, ABPP analysis); format: in vivo, mouse (C57Bl/6J); details: 5 mg/kg oral gavage
# Procedure, shortened: (§2)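 Wild-type C57Bl/6J mice; p.o. gavage, vehicle e.g. PEG400/EtOH/PBS 7/2/1; 5 mg/kg. Brain harvested 4 h post-dose, proteome profiled by ABPP. Read-out: % inhibition.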
# FAAH [6] = biological target: T3, FAAH; test: Mouse brain proteomes from inhibitor treated mice (oral gavage, sacrificed 4 h after administration, ABPP analysis), FAAH; format: in vivo, mouse (C57Bl/6J); details: 5 mg/kg oral gavage
# Procedure, shortened: as §2
# ABHD6 [7] = biological target: T2, ABHD6; test: Mouse brain proteomes from inhibitor treated mice (oral gavage, sacrificed 4 h after administration, ABPP analysis), ABHD6; format: in vivo, mouse (C57Bl/6J); details: 5 mg/kg oral gavage
# Procedure, shortened: as §2
# [8] = human proteome, competitive ABPP
# T1 sequence (O35678 whole entry): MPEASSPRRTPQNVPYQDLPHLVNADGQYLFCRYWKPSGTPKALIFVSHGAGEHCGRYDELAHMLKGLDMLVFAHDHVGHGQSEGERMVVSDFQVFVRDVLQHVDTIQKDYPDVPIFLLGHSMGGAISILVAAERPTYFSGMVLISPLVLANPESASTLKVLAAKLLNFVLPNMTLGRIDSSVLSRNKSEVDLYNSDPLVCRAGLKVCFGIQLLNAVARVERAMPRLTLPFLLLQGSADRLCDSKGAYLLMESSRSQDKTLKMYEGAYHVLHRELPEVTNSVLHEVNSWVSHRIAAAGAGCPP
# T2 sequence (Q8R2Y0 whole entry): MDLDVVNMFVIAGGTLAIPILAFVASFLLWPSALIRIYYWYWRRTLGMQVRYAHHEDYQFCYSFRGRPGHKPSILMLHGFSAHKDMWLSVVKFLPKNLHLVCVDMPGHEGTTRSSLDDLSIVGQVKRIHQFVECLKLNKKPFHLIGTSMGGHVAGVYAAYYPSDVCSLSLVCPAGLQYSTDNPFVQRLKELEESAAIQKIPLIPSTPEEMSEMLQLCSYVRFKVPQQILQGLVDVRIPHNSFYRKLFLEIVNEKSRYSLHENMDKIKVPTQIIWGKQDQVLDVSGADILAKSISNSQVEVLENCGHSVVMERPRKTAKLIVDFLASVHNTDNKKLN
# T3 sequence (O08914 whole entry): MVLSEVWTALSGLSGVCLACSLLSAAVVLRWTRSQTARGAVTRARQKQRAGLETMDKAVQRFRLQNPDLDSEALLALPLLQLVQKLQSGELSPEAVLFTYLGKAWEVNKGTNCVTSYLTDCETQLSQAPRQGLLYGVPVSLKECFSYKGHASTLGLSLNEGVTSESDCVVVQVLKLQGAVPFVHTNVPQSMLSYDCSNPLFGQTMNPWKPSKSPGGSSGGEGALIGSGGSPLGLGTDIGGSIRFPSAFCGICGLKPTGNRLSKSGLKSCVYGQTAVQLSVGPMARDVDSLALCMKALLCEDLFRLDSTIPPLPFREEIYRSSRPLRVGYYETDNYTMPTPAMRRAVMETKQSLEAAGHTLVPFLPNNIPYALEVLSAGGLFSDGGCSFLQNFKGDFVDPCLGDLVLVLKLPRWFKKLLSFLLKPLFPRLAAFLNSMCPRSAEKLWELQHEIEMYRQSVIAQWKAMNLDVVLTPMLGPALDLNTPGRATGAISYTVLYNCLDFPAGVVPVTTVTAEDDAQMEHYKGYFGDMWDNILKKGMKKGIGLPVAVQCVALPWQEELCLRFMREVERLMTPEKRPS
# MAGL (Homo sapiens (Human), UniProt Q99685), sequence (Q99685 whole entry): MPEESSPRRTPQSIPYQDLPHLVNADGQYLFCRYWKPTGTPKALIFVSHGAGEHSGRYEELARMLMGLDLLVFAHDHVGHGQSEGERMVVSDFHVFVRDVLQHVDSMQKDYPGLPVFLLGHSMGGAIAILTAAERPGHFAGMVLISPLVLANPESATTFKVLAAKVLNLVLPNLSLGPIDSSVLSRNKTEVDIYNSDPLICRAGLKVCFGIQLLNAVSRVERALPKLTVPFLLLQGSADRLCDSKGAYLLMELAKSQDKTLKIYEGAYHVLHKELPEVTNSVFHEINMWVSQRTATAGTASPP
SMILES,"inhibition at 1 µM (MAGL [1]; 1 μM, mouse)",inhibition at 1 µM (ABHD6 [2]; mouse),"inhibition at 1 µM (FAAH [3]; 1 μM, mouse)",IC50 (MAGL [4]; human),"inhibition at 1 µM (MAGL [1]; 1 μM, mouse proteome)",inhibition at 1 µM (ABHD6 [2]; mouse proteome),"inhibition at 1 µM (FAAH [3]; 1 μM, mouse proteome)",IC50 (MAGL [4]; [8]),also measured
"CN(C)C(=O)C1CCN(c2cc(C(F)(F)F)ccc2CN2CCCC23CCN(C(=O)OC(C(F)(F)F)C(F)(F)F)CC3)CC1 [Example 16, 1,1,1,3,3,3-Hexafluoropropan-2-yl 1-(2-(4-(dimethylcarbamoyl)piperidin-1-yl)-4-(trifluoromethyl)benzyl)-1,8-diazaspiro[4.5]decane-8-carboxylate]",–,–,–,–,> 75%,< 25%,< 25%,< 100 nM,IC50 (MAGL [1]; mouse proteome): < 100 nM; IC50 (ABHD6 [2]; mouse proteome): > 1000 nM; IC50 (FAAH [3]; mouse proteome): > 1000 nM; MAGL % Inh 5 mg/kg (mouse) (MAGL [5]): # (# is <25%); FAAH % Inh 5 mg/kg (mouse) (FAAH [6]): # (# is <25%); ABHD6 % Inh 5 mg/kg (mouse) (ABHD6 [7]): # (# is <25%)
"COC(=O)C1CCN(c2cc(C(F)(F)F)ccc2CN2CC3(CCN(C(=O)OC(C(F)(F)F)C(F)(F)F)CC3)CC2(C)C)CC1 [Example 53, 1,1,1,3,3,3-Hexafluoropropan-2-yl 2-(2-(4-(methoxycarbonyl)piperidin-1-yl)-4-(trifluoromethyl)benzyl)-3,3-dimethyl-2,8-diazaspiro[4.5]decane-8-carboxylate]",–,–,–,–,> 75%,< 25%,< 25%,< 100 nM,IC50 (MAGL [1]; mouse proteome): 100 to 1000 nM; IC50 (ABHD6 [2]; mouse proteome): > 1000 nM; IC50 (FAAH [3]; mouse proteome): > 1000 nM
O=C(OC(C(F)(F)F)C(F)(F)F)N1CCC2(CCCN2Cc2cc(-c3nnn[nH]3)cc(C(F)(F)F)c2)CC1 [Example 205],–,–,–,–,> 75%,25 to 75%,< 25%,< 100 nM,–
O=C(O)c1ccc(CN2CCCC23CCN(C(=O)OC(C(F)(F)F)C(F)(F)F)CC3)c(C(F)(F)F)c1 [Example 265],> 75%,≥ 75%,< 25%,< 100 nM,–,–,–,–,–
CC1(C(=O)O)CCN(c2cc(C(F)(F)F)ccc2CN2CCC3(CCN(C(=O)OC(C(F)(F)F)C(F)(F)F)CC3)C2)C1 (centres unmarked) [Example 219],–,–,–,–,> 75%,≥ 75%,< 25%,< 100 nM,–
O=C(O)C1CCN(Cc2ccc(CN3CCC4(CCN(C(=O)OC(C(F)(F)F)C(F)(F)F)CC4)C3)cc2C(F)(F)F)CC1 [Example 247],> 75%,≥ 75%,< 25%,< 100 nM,–,–,–,–,–
O=C(O)C1CCN(c2cc(CN3CCCC34CCN(C(=O)OC(C(F)(F)F)C(F)(F)F)CC4)cc(S(F)(F)(F)(F)F)c2)CC1 [Example 263],> 75%,25 to 75%,< 25%,< 100 nM,–,–,–,–,–
O=C(O)c1cc(CN2CCCC23CCN(C(=O)OC(C(F)(F)F)C(F)(F)F)CC3)cc(C(F)(F)F)c1 [Example 206],–,–,–,–,> 75%,25 to 75%,< 25%,< 100 nM,–
NC(=O)C1CCN(C(=O)c2cc(C(F)(F)F)ccc2CN2CCCC23CCN(C(=O)OC(C(F)(F)F)C(F)(F)F)CC3)CC1 [Example 276],> 75%,25 to 75%,< 25%,< 100 nM,–,–,–,–,–
O=C(O)C1CCN(Cc2cc(C(F)(F)F)ccc2CN2CCC3(CCN(C(=O)OC(C(F)(F)F)C(F)(F)F)CC3)C2)CC1 [Example 239],> 75%,< 25%,< 25%,< 100 nM,–,–,–,–,–

# Now from value to compound, other results behind:
"inhibition at 1 µM (MAGL [1]; 1 μM, mouse)",inhibition at 1 µM (ABHD6 [2]; mouse),"inhibition at 1 µM (FAAH [3]; 1 μM, mouse)",IC50 (MAGL [4]; human),"inhibition at 1 µM (MAGL [1]; 1 μM, mouse proteome)",inhibition at 1 µM (ABHD6 [2]; mouse proteome),"inhibition at 1 µM (FAAH [3]; 1 μM, mouse proteome)",IC50 (MAGL [4]; [8]),SMILES,also measured
> 75%,< 25%,< 25%,< 100 nM,–,–,–,–,CC1(C(=O)O)CN(c2cc(C(F)(F)F)ccc2CN2CCC3(CCN(C(=O)OC(C(F)(F)F)C(F)(F)F)CC3)C2)CCO1 (centres unmarked) [Example 256],MAGL % Inh 5 mg/kg (mouse) (MAGL [5]): # (# is <25%); FAAH % Inh 5 mg/kg (mouse) (FAAH [6]): # (# is <25%); ABHD6 % Inh 5 mg/kg (mouse) (ABHD6 [7]): # (# is <25%)
> 75%,≥ 75%,< 25%,< 100 nM,–,–,–,–,O=C(O)C1CCN(c2cc(CN3CCC4(CCN(C(=O)OC(C(F)(F)F)C(F)(F)F)CC4)C3)cc(S(F)(F)(F)(F)F)c2)CC1 [Example 264],–
–,–,–,–,> 75%,≥ 75%,< 25%,< 100 nM,O=C(O)C1CCN(c2cc(C(F)(F)F)ccc2CN2CCC3(CCN(C(=O)OC(C(F)(F)F)C(F)(F)F)CC3)C2)C1 (centres unmarked) [Example 201],–
–,–,–,–,> 75%,≥ 75%,< 25%,< 100 nM,O=C(O)[C@H]1CCCN(c2cc(C(F)(F)F)ccc2CN2CCC3(CCN(C(=O)OC(C(F)(F)F)C(F)(F)F)CC3)C2)C1 [Example 215],–
–,< 25%,–,< 100 nM,–,–,–,–,O=C(O)[C@@H]1CCCN(c2cc(CN3CCC4(CCN(C(=O)OC(C(F)(F)F)C(F)(F)F)CC4)C3)cc(C(F)(F)F)c2)C1 [Example 222],"MAGL % Inh 1 μM (mouse) (MAGL [1]; 1 μM, mouse): ### (### is ≥75%); FAAH % Inh 1 μM (mouse) (FAAH [3]; 1 μM, mouse): # (# is <25%)"
> 75%,≥ 75%,< 25%,< 100 nM,–,–,–,–,O=C(O)C1CCN(Cc2cc(CN3CCC4(CCN(C(=O)OC(C(F)(F)F)C(F)(F)F)CC4)C3)cc(C(F)(F)F)c2)CC1 [Example 245],–
> 75%,≥ 75%,< 25%,< 100 nM,–,–,–,–,CC1(C(=O)O)CCN(c2cc(CN3CCC4(CCN(C(=O)OC(C(F)(F)F)C(F)(F)F)CC4)C3)cc(C(F)(F)F)c2)C1 (centres unmarked) [Example 229],–
> 75%,25 to 75%,< 25%,< 100 nM,–,–,–,–,O=C(O)C1CCN(c2cc(Cl)cc(CN3CCC4(CCN(C(=O)OC(C(F)(F)F)C(F)(F)F)CC4)C3)c2)CC1 [Example 232],–
> 75%,25 to 75%,< 25%,< 100 nM,–,–,–,–,O=C(O)C1CCN(c2cc(F)cc(CN3CCC4(CCN(C(=O)OC(C(F)(F)F)C(F)(F)F)CC4)C3)c2)CC1 [Example 233],–
> 75%,≥ 75%,< 25%,< 100 nM,–,–,–,–,O=C(O)C1COCCN1c1cc(CN2CCC3(CCN(C(=O)OC(C(F)(F)F)C(F)(F)F)CC3)C2)cc(C(F)(F)F)c1 (centres unmarked) [Example 278],–
> 75%,≥ 75%,< 25%,< 100 nM,–,–,–,–,O=C(O)C1CCN(c2cc(CN3CCC4(CCN(C(=O)OC(C(F)(F)F)C(F)(F)F)CC4)C3)cc(C(F)(F)F)c2)CC1 [Example 279],–
–,–,–,–,> 75%,< 25%,< 25%,< 100 nM,O=C(O)C1CCN(c2cc(CN3CCCC34CCN(C(=O)OC(C(F)(F)F)C(F)(F)F)CC4)cc(C(F)(F)F)c2)C1 (centres unmarked) [Example 203],–
> 75%,≥ 75%,< 25%,< 100 nM,–,–,–,–,O=C(O)C1CN(c2cc(CN3CCC4(CCN(C(=O)OC(C(F)(F)F)C(F)(F)F)CC4)C3)cc(C(F)(F)F)c2)CCO1 (centres unmarked) [Example 277],–
